Tests used:
CYP1A1 mRNA = assay: Expression of cyp1A1 mRNA in HepG2 cells stimulated with 3-methylcholanthrene (homogeneous bead-based detection oligonucleotide assay); assay type: cell-based; conditions: human, 24 h 3-MC, each of three plates, standard deviation 0.05 μM between plates
Method: (§1) Fully automated dual-channel confocal imaging was performed with two independent cooled CCD detectors. Excitation wavelengths were 532 nm and 633 nm, a dichroic beam splitter with 630 nm was used and emission filters were 565/50 nm and 690/40 nm. Laser power was ˜500 μW for both wavelengths, measured at the entrance of the objective. Exposure times were usually in the range of 500-1000 ms.
An image of the sample was acquired at 565 nm by the first CCD detector. This image is called the signal image. At this wavelength, the emission of the detection oligonucleotides is seen. Therefore, in principle one can see the fluorescence emission of both the unbound detection oligonucleotides as well as the detection oligonucleotides bound specifically to the analyte (and consequently via the capture oligonucleotides to the beads). […]
In addition, an image of the sample was acquired at 690 nm by the second CCD detector. […] The fluorescence of the biotinylated red oxazine dye bound to the beads can be seen as a red ring in the reference image (see FIG. 6, left picture). […] This fluorescence intensity is constant and not dependent on the mRNA analyte concentration, see FIG. 5 for illustration. […]
The analysis of the images was performed with image analysis software as follows. […] A mask of these rings corresponding to detected beads was generated from the reference image. […]

Cyp1A1 = Cyp1A1 induction by 3-methylcholanthrene, publication of Delescluse et al.; read-out: EC50 roughly estimated from a published Northern Blot; cited from earlier work
c-fos mRNA = assay: Expression of c-fos mRNA in HepG2 cells stimulated with PMA (homogeneous bead-based detection oligonucleotide assay, confocal imaging); assay type: cell-based; conditions: for Mean average fluorescence signal intensity/bead pixel: 1 h
Method: as §1
An image of the sample was acquired at 565 nm by the first CCD detector. This image is called the signal image. At this wavelength, the emission of the detection oligonucleotides is seen. Therefore, in principle one can see the fluorescence emission of both the unbound detection oligonucleotides as well as the detection oligonucleotides bound specifically to the analyte (and consequently via the capture oligonucleotides to the beads). To distinguish these signals from each other, the present invention teaches to minimize the emission of the unbound detection oligonucleotides by the use of complementary quencher oligonucleotides. The signal intensity on the beads is linear dependent on the analyte concentration, i.e. in the present example the mRNA concentration.
In addition, an image of the sample was acquired at 690 nm by the second CCD detector. This image is called the reference image. At this wavelength, the emission of the biotinylated red oxazine dye is seen. The fluorescence of the biotinylated red oxazine dye bound to the beads can be seen as a red ring in the reference image (see FIG. 6, left picture). This emission of the dyes bound to the beads can be distinguished from the background emission of the unbound biotinylated red oxazine dye through threshold techniques. This fluorescence intensity is constant and not dependent on the mRNA analyte concentration, see FIG. 5 for illustration. At extremely high mRNA concentrations it may become inversely related to the mRNA concentrations due to limited streptavidin binding sites, however, under physiological conditions and in the experiments presented here this was not the case.
The analysis of the images was performed with image analysis software as follows. Segmentation of the beads from the background was performed on a pixel-basis in the reference image. […] A mask of these rings corresponding to detected beads was generated from the reference image. This mask was applied to the signal image (see FIG. 6, right picture). Areas within the outer boundary of the ring were evaluated for fluorescence intensity stemming from the DO-analyte-CO complex bound to the bead. […] Such local background intensity was then subtracted from the signal intensity.
The final result was the mean fluorescence intensity/bead pixel of the signal image. In general, the intensity was averaged over all correctly detected beads of the image. The beads were usually comprised in wells of micro- or nanotiter plates and in some cases, several images were taken of each well. In this instance, the intensity was averaged over all images of one well.
HepG2 cells were seeded at a density of 2*10^6 cells in 10 ml medium/plate (corresponding to 2*10^5 cells/ml) in nine 10 cm tissue culture plates (Greiner bio-one, catalogue no. 664160) in DMEM-F12 (Gibco, catalogue no. 31331-028) supplemented with 10% FCS (Gibco, catalogue no. 10500-064). The cells were incubated for 48 h at 37° C. with 5% CO2. Then medium was changed to DMEM (Sigma, catalogue no. D 5921) supplemented with 0.1% sterile filtered HSA (Sigma, catalogue no. A 1653) and incubation was continued for 24 h at 37° C. with 5% CO2. Then the cells were incubated with PMA (Phorbol 12-myristate 13-acetate, Sigma, catalogue no. P1585) for 1 h at 37° C. and 5% CO2 to induce expression of c-fos. 500 μl of appropriate PMA dilutions in DMEM with 0.1% HSA were added, for final concentrations refer to table 4 below.
One control plate was used for cell counting, the final cell number was 1.5*10^7 cells/plate. […]

SMILES | EC50 at 24 h (CYP1A1 mRNA) [nM] | EC50 (Cyp1A1) [nM] | average expression rate of c-fos mRNA (c-fos mRNA; 100 nM PMA, 7.2*10^4 lysed cells per well) [copies mRNA/cell] | c-fos mRNA copy number per well (c-fos mRNA; 100 nM PMA, 24 μl of lysate, from the calibration of example 1a) | EC50 (c-fos mRNA; HepG2 cells, 1 h PMA, read-out: EC50 of increase in c-fos expression) [nM] | Mean average fluorescence signal intensity/bead pixel (c-fos mRNA; HepG2 cells, PMA 0.5 nM) | Mean average fluorescence signal intensity/bead pixel (c-fos mRNA; HepG2 cells, PMA 1 nM) | Mean average fluorescence signal intensity/bead pixel (c-fos mRNA; HepG2 cells, PMA 10 nM) | Mean average fluorescence signal intensity/bead pixel (c-fos mRNA; HepG2 cells, PMA 100 nM) | Mean average fluorescence signal intensity/bead pixel (c-fos mRNA; HepG2 cells, PMA 500 nM) | Mean average fluorescence signal intensity/bead pixel (c-fos mRNA; HepG2 cells, PMA 1000 nM)
Cc1ccc2cc3c(ccc4ccccc43)c3c2c1CC3 [3-MC, 3-methylcholanthrene] | 800 | ~500 |  |  |  |  |  |  |  |  | 
CCCCCCCCCCCCCC(=O)O[C@@H]1[C@@H](C)[C@@]2(O)[C@@H](C=C(CO)C[C@]3(O)C(=O)C(C)=C[C@@H]23)[C@@H]2C(C)(C)[C@]12OC(C)=O [PMA, Phorbol 12-myristate 13-acetate] |  |  | 42 | 3.03*10^6 copies mRNA/well | 484 | 1.51 | 1.53 | 4.84 | 14.29 | 24.44 | 30.03
